One series concerns VeroE6 cells. As to conditions: uninfected VeroE6 cells, MTS assay; mean ± SD of duplicate experiments. For orientation: Tetrazolium assays rely on reduction of a dye to a coloured formazan, in cell work by metabolically active cells.
A short description of series [1]: in vitro. The note with it: chlorocebus sabaeus.
Another series deals with SARS-CoV-2. Description: microbe, parasite or virus in culture. The series is classed as cell-based. The note with it: […], mean ± SD of duplicate experiments; for EC50: Severe acute respiratory syndrome coronavirus 2, read-out: Anti-SARS-CoV-2 activity EC50.
For series [2], the system named is autophagy (LC3-II puncta) in VeroE6 cells. Put plainly: Autophagy inhibition assay, LC3-II immunofluorescence in VeroE6 cells. The series is classed as cell-based. The note with it: for effect on autophagy (LC3-II accumulation), in words: 10 μM, 4 h, compared to CQ.
Series [3] in a line: in vitro. The note with it: human.
For a further series, the system named is HCoV-OC43. Put plainly: microbe, parasite or virus in culture. The format is cell-based. As to conditions: Betacoronavirus 1, OC43, HEL 299, read-out: HCoV-OC43 EC50.
Series [4] concerns the target SARS-CoV-2 nsp13 helicase (Severe acute respiratory syndrome coronavirus 2, UniProt P0DTD1). Put plainly: biochemical. The format is biochemical. As to conditions: for IC50: SARS-CoV-2 nsp13 helicase-associated activity, read-out: helicase unwinding IC50.
For a further series, the system named is HCoV-229E. Put plainly: microbe, parasite or virus in culture. The series is classed as cell-based. The note with it: Human coronavirus 229E, HEL 299, read-out: HCoV-229E EC50.
In a further series the target is SARS-CoV-2 nsp12 RdRp (Severe acute respiratory syndrome coronavirus 2, UniProt P0DTD1). Put plainly: SARS-CoV-2 nsp12 RdRp activity, fluorescent-based assay. The format is biochemical. As to conditions: in the presence of the highest concentration of tested compound (30 μM); read-out: RdRp percentage of control.
For another series, the target named is SARS-CoV-2 nsp13 ATPase (Severe acute respiratory syndrome coronavirus 2, UniProt P0DTD1). The series is classed as biochemical. The note with it: for IC50: SARS-CoV-2 nsp13 ATPase-associated activity, read-out: helicase ATPase IC50; for helicase ATPase percentage of control: in the presence of the highest concentration of tested compound (30 μM; 3 μM for SSYA10-001).

A value given as a limit tells only on which side of the number the result lay.

In the case of `CCCOc1ccc(-c2cc(OCCN3CCN(Cc4ccccc4)CC3)c3cccc(OC)c3n2)cc1` [Compound 5f], the melting point (as a rule, the temperature of the solid-liquid transition) was in the range of 95 to 97 °C. Further, the “VeroE6 cells CC50” value in the series with VeroE6 cells is listed as “lacked cytotoxicity”. The compound further registered a CC50 in the series “in vitro [1]” of more than 100 µM. Also, the EC50 (usually the concentration giving half of the maximal effect) in the series on SARS-CoV-2 came out at 35.9 ± 32.2 µM.
On to `CCCOc1ccc(-c2cc(OCCN3CCc4cc(OC)c(OC)cc4C3)c3cccc(OC)c3n2)cc1` [Compound 5g], for which, in [2], the “effect on autophagy (LC3-II accumulation), in words” value is recorded as “minimal effect on the autophagy”. Moreover, in the series “in vitro [1]”, the CC50 is more than 100 µM. In addition, in the series on SARS-CoV-2, the EC50 was more than 100 µM and the “Anti-SARS-CoV-2 activity EC50” value was “devoid of antiviral activity”.
With `CCCOc1ccc(-c2cc(OCCN3CCc4cc(OC)c(OC)cc4C3)c3cc(OC)cc(OC)c3n2)cc1` [Compound 9g], the “effect on autophagy (LC3-II accumulation), in words” value in series [2] is reported as “minimal effect on the autophagy”. For the same compound, the CC50 in the series “in vitro [1]” was more than 100 µM. Further, in the series on SARS-CoV-2, the EC50 was more than 100 µM and the “Anti-SARS-CoV-2 activity EC50” value is on record as “devoid of antiviral activity”.
As for `CCN(CC)CCCC(C)Nc1ccnc2cc(Cl)ccc12` (stereo not drawn) [Chloroquine, chloroquine, reference compound], the CC50 amounted to 33.6 ± 1.3 µM in the series “in vitro [3]” and 83.4 ± 4.2 µM in the series “in vitro [1]”. Further, in [2] (10 μM for 4 h), the “increase in the intensity of the cytoplasmic LC3 puncta” value came out at 9 fold. Also, in the series on HCoV-OC43, the EC50 was less than 0.8 µM.
With `CCCOc1ccc(-c2cc(OCCN3CCCCC3)c3c(OC)ccc(OC)c3n2)cc1` [Compound 7k], the results for the IC50 (in [4]; at SARS-CoV-2 nsp13 ATPase) were 1.41 ± 0.64 µM and more than 30 µM, respectively. Moreover, the values for the EC50 in the series with HCoV-229E, in the series with HCoV-OC43 and in the series on SARS-CoV-2 were 9.4 ± 3.6 µM, 7.7 ± 3.3 µM and 2.7 ± 1.9 µM, respectively. Also, the CC50 in “in vitro [3]” stood at 95.3 ± 3.3 µM; in “in vitro [1]” it was 23.8 ± 5.7 µM. At SARS-CoV-2 nsp12 RdRp, the remaining activity at 30 µM is 100%. Moreover, the “helicase ATPase percentage of control” value on SARS-CoV-2 nsp13 ATPase was found to be 100%.
Take `CCCOc1ccc(-c2cc(OCCN3CCN(Cc4ccccc4)CC3)c3c(OC)cc(OC)cc3n2)cc1` [Compound 6f]: the IC50 (in series [4]; at SARS-CoV-2 nsp13 ATPase) was more than 30 µM each time. Further, the remaining activity at 30 µM in series [4] (in the presence of the highest concentration of tested compound (30 μM), read-out: helicase unwinding percentage of control) was found to be 55%; on SARS-CoV-2 nsp12 RdRp it was 100%. For the same compound, the EC50 came to 2.2 ± 0.7 µM in the series on HCoV-229E, 1.9 ± 0.2 µM in the series with HCoV-OC43 and 7.9 ± 5.6 µM in the series with SARS-CoV-2. The “VeroE6 cells CC50” value with VeroE6 cells was “lacked cytotoxicity”. Further, the results for the CC50 in the series “in vitro [3]” and in the series “in vitro [1]” were 35.6 ± 0.2 µM and more than 100 µM, respectively. In addition, the “helicase ATPase percentage of control” value at SARS-CoV-2 nsp13 ATPase amounted to 96%.

These data come from publication PMC9088073, “Discovery of 2-Phenylquinolines with Broad-Spectrum Anti-coronavirus Activity” (ACS Medicinal Chemistry Letters, 2022).
